The values below come from US10858357B2, “Water-soluble myosin 2 inhibitors for the treatment of neurological, neuropathic or psychiatric diseases” (PARIS SCIENCES ET LETTRES-QUARTIER LATIN, priority 2016, dated 2020).

Read-outs that look alike come from different tables or passages of the source.

For one assay, the system named is spinal cord injury. The assay can be described thus: Spinal cord complete section, BBB locomotor scoring. Format: in vivo, rat. As to conditions: 10 mM in 10% DMSO/90% aCSF at injury site; from day 7; non-treated stays under 3. As to the method:
In this experiment, a complete section of the spinal cord on animals was carried out. Then, neurelaxin A administration was carried out at the injury site, 5-10 min after the injury was performed. This neurelaxin-A administration was carried out via a diluted solution of 10 mM of neurelaxin A in a 10% DMSO/90% aCSF (artificial cerebrospinal fluid) solution, leading to an orange bright precipitate that is slowly soluble into the injury site. Finally, a BBB (Basso, Beattie and Bresnahan) analysis is performed in order to study the sequence of functional locomotor recovery patterns. The scale (0-21) represents sequential recovery stages and categorizes combinations of rat joint movement, hindlimb movements, stepping, forelimb and hind limbcoordination, trunk position and stability, paw placement and tail position.
According to this test, any drug treatment which may increase the BBB scores may be considered neuroprotective in animal models.
In this experiment, treated animals (n=3) were undistinguishable from non-treated animals (n=3). The BBB scoring scale ranges from 0 to 21.

Assay [1] has as its system human melanoma (M2) cells. The assay can be described thus: Inhibition of blebbing of M2 cells (blebbing index). The assay is classed as cell-based. As to the method:
For blebbing index determination, M2 cells were incubated for 30 minutes in PBS in every case prior to the addition of inhibitors, in order to initiate extensive blebbing. Blebbing of the cells was monitored before as well as after inhibitor addition to the cells. DMSO concentration was 0.1 vol/vol % in all experiments. Blebbing index was calculated by summing the initiated blebs in a 5-minute interval (starting at the indicated time points) on a given standard area 17 (whole cells with similar size, diameter=12±1 μm) and normalizing it to the blebbing index prior to inhibitor treatment.
As myosin 2 inhibition blocks blebbing of M2 cells (Straight et al., Science, 2003, 299 (5613), pp 1743-7), the blebbing indices ((Charras, G. T., Yarrow, J. C., Horton, M. A., Mahadevan, L. & Mitchison, T. J. Non-equilibration of hydrostatic pressure in blebbing cells. Nature 435, 365-369, doi:10.1038/nature03550 (2005))) of M2 cells were measured in time, after incubating the cells in neurelaxin-A at different concentrations (FIG. 3C).

The target of assay [2] is T1, Dictyostelium discoideum myosin 2 motor domain (DdMD) (Dictyostelium discoideum, UniProt P08799).
T1 construct: Dictyostelium discoideum myosin 2 motor domain (DdMD)
T1 sequence (P08799 86-759 limits assumed): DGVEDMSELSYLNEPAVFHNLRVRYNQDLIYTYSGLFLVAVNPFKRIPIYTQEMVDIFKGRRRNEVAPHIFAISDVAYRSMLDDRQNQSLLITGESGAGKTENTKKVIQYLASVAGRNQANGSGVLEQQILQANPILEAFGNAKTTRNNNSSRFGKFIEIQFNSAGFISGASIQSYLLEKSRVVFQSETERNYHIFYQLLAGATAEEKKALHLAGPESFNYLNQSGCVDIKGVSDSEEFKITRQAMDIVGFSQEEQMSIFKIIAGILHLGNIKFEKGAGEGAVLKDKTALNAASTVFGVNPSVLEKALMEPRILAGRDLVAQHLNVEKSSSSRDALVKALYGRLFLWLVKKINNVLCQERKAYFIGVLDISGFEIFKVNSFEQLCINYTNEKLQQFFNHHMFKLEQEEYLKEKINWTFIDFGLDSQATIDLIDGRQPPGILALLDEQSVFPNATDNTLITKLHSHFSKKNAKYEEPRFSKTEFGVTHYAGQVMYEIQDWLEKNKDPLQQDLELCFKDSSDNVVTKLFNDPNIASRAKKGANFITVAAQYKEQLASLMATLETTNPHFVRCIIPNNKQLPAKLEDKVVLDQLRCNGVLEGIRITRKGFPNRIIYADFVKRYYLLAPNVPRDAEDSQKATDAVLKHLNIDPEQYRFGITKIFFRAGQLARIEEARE
The assay can be described thus: Steady state MgATPase, NADH-coupled assay, DdMD. The assay is classed as biochemical. The conditions noted are these: for IC50: 20° C. The protocol:
MgATPase activities of 500 nM (for basal ATPase) or 50 nM (for actin activated ATPase) SkS1 (rabbit skeletal S1 fragment) 23 and 1 μM (for basal ATPase) or 300 nM (for actin activated ATPase) DdMD were measured at increasing concentrations of neurelaxin-A in the absence or in the presence of 45 μM actin for SkS1 or 15 μM actin for DdMD. Measurements were carried out using a pyruvate kinase/lactate dehydrogenase coupled assay (NADH-coupled assay) (Kovacs M. et al., J. Biol. Chem. 2004, 279 (34), pp 35557-35563) at 25° C. or 20° C. in case of SkS1 or DdMD, respectively. Myosin and actin together with the indicated concentration of the inhibitor were pre-incubated for 5 minutes at room temperature and the measurements were initiated with 1 mM ATP. Data were corrected for background ATPase activity of actin. G-actin was prepared accordingly from rabbit skeletal muscle (Spudich, J. A. & Watt, S.; The Journal of Biological Chemistry 246, 1971, pp 4866-4871) and polymerized by 2 mM MgCl2 for 1 hour at room temperature. Measurements were performed in low salt buffer containing 5 mM HEPES, 2 mM MgCl2, 0.1 mM EGTA and 2 mM DTT at pH 7.2 or assay buffer containing 20 mM HEPES, 40 mM NaCl, 4 mM MgCl2 at pH 7.3 for basal ATPase activity measurements with DdMD.
The basal and actin activated ATPase activities of rabbit skeletal muscle myosin S1 (SkS1) and Dictyostelium discoideum myosin 2 motor domain (DdMD) were measured at increasing concentrations of neurelaxin-A (FIGS. 3A and 3B).

Take `Cc1ccc2c(c1)C(=O)C1(O)CCN(c3ccc(N)cc3)C1=N2` (stereo not shown) [Neurelaxin-A, 1-(4-aminophenyl)-3a-hydroxy-6-methyl-3,3a-dihydro-1H-pyrrolo[2,3-b]quinolin-4(2H)-one]: the BBB scoring result with spinal cord injury was “significant increasing of BBB scoring”. The “τ, time constant of suppression of blebbing index” value in assay [1] (5 μM) came to 25.0 ± 4.3 min; in assay [1] (10 μM) it was 16.8 ± 1.6 min; in assay [1] (25 μM), 9.9 ± 0.3 min; in assay [1] (50 μM) it was 7.8 ± 0.3 min. Besides, in assay [1] (5 μM, within an hour), the “effect on blebbing indices” value is given as “significant decrease”. Moreover, the “time within which blebbing completely stopped” value in assay [1] (10 μM) is 40 to 60 min; in assay [1] (25 μM), greater than 20 min; in assay [1] (50 μM) it was greater than 20 min. Further, the “inhibition reached, actin activated ATPase of DdMD” value in assay [2] (actin activated) is given as 80%. The half-inhibitory concentration (IC50) (usually the concentration that gives 50% inhibition) in assay [2] (actin activated, 300 nM DdMD, 15 μM actin, read-out: IC50 actin activated ATPase activity of DdMD) was found to be 6.7 ± 1.9 µM; in assay [2] (basal, 1 μM DdMD, read-out: IC50 basal ATPase of DdMD), 6.6 ± 2 µM. In addition, the “inhibition reached, basal ATPase of DdMD” value in assay [2] (basal) stood at 90%.
